Test results reported in a compilation of properties of binary mixtures (doi:10.1021/acs.jced.8b00965).

Experiment: xn = mol fraction of the nth substance listed
Conditions: 100 kPa

C[N+](C)(C)CCC[N+]1(C)CCCCC1.N#C[N-]C#N.N#C[N-]C#N + CO
viscosity [mPa·s]
Conditions	x1 = 0.0999	x1 = 0.2001	x1 = 0.3002	x1 = 0.3999	x1 = 0.5002	x1 = 0.6001	x1 = 0.7003	x1 = 0.7998	x1 = 0.8995	x1 = 1
293.15 K	4.25	14.7	39.6	109	–	–	1181	1884	2855	4503
303.15 K	3.58	–	–	70.3	–	330	610	920	1281	1837
313.15 K	3.09	8.9	20.3	46.7	100	203	337	489	646	860
323.15 K	–	7.22	–	33.8	68	130	206	292	369	460
333.15 K	2.46	6	12.5	–	48.4	88.2	134	187	236	270

C[N+](C)(C)CCC[n+]1ccccc1.N#C[N-]C#N.N#C[N-]C#N + CO
viscosity [mPa·s]
Conditions	x1 = 0.0999	x1 = 0.2001	x1 = 0.3002	x1 = 0.3999	x1 = 0.5002	x1 = 0.6001	x1 = 0.7003	x1 = 0.7998	x1 = 0.8995	x1 = 1
293.15 K	4.37	14.9	32.5	–	117	233	343	508	–	2191
303.15 K	3.66	11.4	23.1	45.9	–	131	–	255	396	830
313.15 K	–	9.01	17.4	–	–	81.1	110	–	198	–
323.15 K	2.82	7.36	–	–	–	–	70.6	90.5	116	210
333.15 K	–	–	11.4	–	28	–	49.3	60.6	76	127

CO + C[N+](C)(C)CCC[N+]1(C)CCCCC1.N#C[N-]C#N.N#C[N-]C#N
x2 = 0
Conditions	viscosity [mPa·s]
303.15 K	0.508
313.15 K	0.446
333.15 K	0.352

CO + C[N+](C)(C)CCC[n+]1ccccc1.N#C[N-]C#N.N#C[N-]C#N
x2 = 0
Conditions	viscosity [mPa·s]
293.15 K	0.584
303.15 K	0.508
313.15 K	0.446
323.15 K	0.395
333.15 K	0.352
